US8222262B2, “Indazolyl derivatives useful as potassium channel modulating agents” (Neurosearch A/S, priority 2006, dated 2012)

Columns and labels:
hSK3 channels = biological target: T1, hSK3 channels (Homo sapiens, UniProt Q9UGI6); experiment: Whole-cell patch-clamp recording of ionic current through SK channels (subtype 3) in HEK293 cells expressing hSK3; format: cell-based; conditions: baseline current at -75 mV, free Ca2+ 0.3-0.4 μM, room temperature
T1 construct: expressed in transfected cells; host or cells: HEK293
Method: The ionic current through small-conductance Ca^2+-activated K^+ channels (SK channels, subtype 3) is recorded using the whole-cell configuration of the patch-clamp technique.
HEK293 tissue culture cells expressing hSK3 channels were grown in DMEM (Dulbecco's Modified Eagle Medium) supplemented with 10% FCS (foetal calf serum) at 37° C. in 5% CO2. At 60-80% confluency, cells were harvested by trypsin treatment and seeded on cover slips.
Experiments are carried out a patch-clamp set-up. Cells plated on coverslips are placed in a 15 μl perfusion chamber (flowrate ˜1 ml/min) mounted on an inverted microscope placed on a vibration-free table in a grounded Faraday cage. All experiments are performed at room temperature (20-22° C.). […] Data are stored directly on the hard-disk and analysed by IGOR software (Wavemetrics, Lake Oswega, Oreg., USA).
The whole-cell configuration of the patch-clamp technique is applied. […] Cell capacitance is electronically compensated and the resistance between the pipette and the cell interior (the series resistance, Rs) is measured and compensated for. […]
The intracellular (pipette) solution contained: 154 mM KCl, 10 mM HEPES, 10 mM EGTA. Concentrations of CaCl2 and MgCl2 needed to obtain the desired free concentrations of Ca^2+ (0.3-0.4 μM, Mg^2+ always 1 mM) were calculated by EqCal software (Cambridge, UK) and added. […]

melting point | SC100 (Stimulating Concentration required for increasing the baseline current by 100%) (hSK3 channels) | SMILES
249 to 252 °C | – | Clc1ccc(Nc2cncc(-n3cc4ccccc4n3)n2)cc1 [Compound D1, (4-Chloro-phenyl)-(6-indazol-2-yl-pyrazin-2-yl)-amine]
278.1 to 281.4 °C | – | c1ccc2c(c1)cnn2-c1nc(NC2CCCCC2)c2ccccc2n1 [Compound A3, Cyclohexyl-(2-indazol-1-yl-quinazolin-4-yl)-amine]
224.7 to 226.7 °C | 0.08 µM | Cc1cc(Nc2ccc(Cl)cc2)nc(-n2cc3ccccc3n2)n1 [Compound A1, (4-Chloro-phenyl)-(2-indazol-2-yl-6-methyl-pyrimidin-4-yl)-amine]
